From patent publication EP2818472A1, “Imidazo[4,5-c]pyridine and pyrrolo[3,2-c]pyridine compounds as G-protein-coupled receptor kinase 5 (GRK5) modulators” (Max-Planck-Gesellschaft zur Förderung der Wissenschaften …, priority 2013, dated 2014) come the findings set out here.

Bounds are passed on as bounds.

The first test concerns beta-TC6 cells. Nature of the test: Insulin HTRF assay (relative activity Ar) in beta-TC6 cells. The test is classed as cell-based, mouse. To be noted: Mus musculus, Beta-TC6, 4 h, insulin HTRF, supernatant of beta-TC6 cells, incubation with test compound at 37°C for 2, 3, 4h; read-out: Ar (relative activity). The procedure, abridged:
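beta-TC6 cells (15k/well, seeded 24 or 48 h) washed, then exposed to compound in induction buffer (0.5% DMSO final) for 2, 3 or 4 h at 37°C.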
In general terms: In TR-FRET formats the signal depends on donor and acceptor labels being close together.
In the case of `Cn1c(NCC2CC2)nc2cnc(Nc3ccc(C(F)(F)F)cc3)cc21` [Compound 763, N2-(cyclopropylmethyl)-1-methyl-N6-[4-(trifluoromethyl)phenyl]imidazo[4,5-c]pyridine-2,6-diamine], the Emax was 0 to 30%.

Consider `FC(F)(F)Oc1cccc(-c2nc3c(NCc4ccccn4)nccc3[nH]2)c1` [Compound 445, N-(2-pyridylmethyl)-2-[3-(trifluoromethoxy)phenyl]-1H-imidazo[4,5-c]pyridin-4-amine], for which the Emax was 30 to 50%. As to `COc1cccc(-c2nc3c(Nc4cccc(O)c4)nccc3[nH]2)c1F` [Compound 478, 3-[[2-(2-fluoro-3-methoxy-phenyl)-1H-imidazo[4,5-c]pyridin-4-yl]amino]phenol], the Emax fell in the range of 50 to 100%. As for `CS(=O)(=O)Nc1cccc(Nc2cc3[nH]c(-c4cccc(C(F)(F)F)c4)cc3cn2)c1` [Compound 5, N-[3-[[2-[3-(trifluoromethyl)phenyl]-1H-pyrrolo[3,2-c]pyridin-6-yl]amino]phenyl]methanesulfonamide], the Emax lay within 0 to 30%. For the compound `COc1ccc(Nc2cc3c(cn2)nc(-c2ccc(OC)c(OC)c2)n3C)c(C)c1` [Compound 720, 2-(3,4-dimethoxyphenyl)-N-(4-methoxy-2-methyl-phenyl)-1-methyl-imidazo[4,5-c]pyridin-6-amine], the Emax is 30 to 50%. In the case of `COc1cccc(-c2cc3c(Nc4cccnc4)nccc3[nH]2)c1` [Compound 308, 2-(3-methoxyphenyl)-N-(3-pyridyl)-1H-pyrrolo[3,2-c]pyridin-4-amine], the Emax lay within 50 to 100%. The same measure, in the same setting: with `COc1ccc(-c2nc3c(N4CCN(C)CC4)nccc3[nH]2)cc1` [Compound 396, 2-(4-methoxyphenyl)-4-(4-methylpiperazin-1-yl)-1H-imidazo[4,5-c]pyridine] the figure was 30 to 50%; with `c1ccc(Cn2c(-c3cccnc3)cc3cnc(Nc4ccccn4)cc32)cc1` [Compound 98, 1-benzyl-N-(2-pyridyl)-2-(3-pyridyl)pyrrolo[3,2-c]pyridin-6-amine], 30 to 50%.

On to `Cc1cccc(CNc2nc3cnc(-c4ccc(S(C)(=O)=O)cc4)cc3n2C)c1` [Compound 806, 1-methyl-6-(4-methylsulfonylphenyl)-N-(m-tolylmethyl)imidazo[4,5-c]pyridin-2-amine], for which the Emax lay within 30 to 50%. As to `Fc1cccc(-c2cc3cnc(N4CCOCC4)cc3[nH]2)c1` [Compound 12, 4-[2-(3-fluorophenyl)-1H-pyrrolo[3,2-c]pyridin-6-yl]morpholine], the Emax was greater than 100%. Same read-out and setting: the result for `c1ccc(Nc2nccc3[nH]c(-c4ccc5c(c4)OCCO5)nc23)cc1` [Compound 412, 2-(2,3-dihydro-1,4-benzodioxin-6-yl)-N-phenyl-1H-imidazo[4,5-c]pyridin-4-amine] reads 30 to 50%. Consider `CC(C)c1ccc(Nc2cc3[nH]c(-c4ccc(C(=O)N(C)C)cc4)cc3cn2)cc1` [Compound 38, 4-[6-(4-isopropylanilino)-1H-pyrrolo[3,2-c]pyridin-2-yl]-N,N-dimethyl-benzamide], for which the Emax was 0 to 30%. For `CNc1nc2cnc(-c3cccc(OC(F)(F)F)c3)cc2n1Cc1ccccc1` [Compound 762, 1-benzyl-N-methyl-6-[3-(trifluoromethoxy)phenyl]imidazo[4,5-c]pyridin-2-amine], the Emax lay in the range of 0 to 30%.

On to `Cc1cccc(Nc2cc3c(cn2)nc(-c2ccco2)n3C)c1` [Compound 709, 2-(2-furyl)-1-methyl-N-(m-tolyl)imidazo[4,5-c]pyridin-6-amine], for which the Emax was in the range of 50 to 100%. Take `CNc1nc2cnc(Nc3cccc(OC)c3)cc2n1Cc1cccnc1` [Compound 560, N6-(3-methoxyphenyl)-N2-methyl-1-(3-pyridylmethyl)imidazo[4,5-c]pyridine-2,6-diamine]: the Emax was in the range of 50 to 100%. Regarding `Oc1cccc(Nc2nccc3[nH]c(-c4ccc(F)c(F)c4)nc23)c1` [Compound 441, 3-[[2-(3,4-difluorophenyl)-1H-imidazo[4,5-c]pyridin-4-yl]amino]phenol], the Emax was in the range of 30 to 50%. As for `CS(=O)(=O)c1ccc(Nc2cc3[nH]c(-c4cccc(F)c4)cc3cn2)cc1` [Compound 16, 2-(3-fluorophenyl)-N-(4-methylsulfonylphenyl)-1H-pyrrolo[3,2-c]pyridin-6-amine], the Emax is 30 to 50%. Take `NC(=O)c1ccc(Nc2nccc3[nH]c(-c4cccc(F)c4)nc23)cc1` [Compound 403, 4-[[2-(3-fluorophenyl)-1H-imidazo[4,5-c]pyridin-4-yl]amino]benzamide]: the Emax lay within 30 to 50%. As to `COc1ccc(-c2nc3cnc(Nc4ccc(NC(C)=O)cc4)cc3n2C)cc1OC` [Compound 717, N-[4-[[2-(3,4-dimethoxyphenyl)-1-methyl-imidazo[4,5-c]pyridin-6-yl]amino]phenyl]acetamide], the Emax fell in the range of 50 to 100%. On to `CN(C)C(=O)c1ccc(-c2cc3cnc(Nc4ccc(OC(F)(F)F)cc4)cc3[nH]2)cc1` [Compound 34, N,N-dimethyl-4-[6-[4-(trifluoromethoxy)anilino]-1H-pyrrolo[3,2-c]pyridin-2-yl]benzamide], for which the Emax lay within 0 to 30%. Take `COCCNc1nc2cnc(-c3ccc(S(C)(=O)=O)cc3)cc2n1C` [Compound 648, N-(2-methoxyethyl)-1-methyl-6-(4-methylsulfonylphenyl)imidazo[4,5-c]pyridin-2-amine]: the Emax fell in the range of 30 to 50%. Consider `CNc1nc2cnc(-c3ccc4c(c3)OCO4)cc2n1-c1cccc(F)c1` [Compound 885, 6-(1,3-benzodioxol-5-yl)-1-(3-fluorophenyl)-N-methyl-imidazo[4,5-c]pyridin-2-amine], for which the Emax was in the range of 0 to 30%. With `COc1ccc(-c2nc3c(N4CCN(C)CC4)nccc3[nH]2)cc1OC` [Compound 346, 2-(3,4-dimethoxyphenyl)-4-(4-methylpiperazin-1-yl)-1H-imidazo[4,5-c]pyridine], the Emax was in the range of 50 to 100%. Still for that read-out and setting: with `Fc1cccc(-c2cc3c(N4CCOCC4)nccc3[nH]2)c1` [Compound 187, 4-[2-(3-fluorophenyl)-1H-pyrrolo[3,2-c]pyridin-4-yl]morpholine] the figure was 30 to 50%; with `c1ccc(-c2nc3c(NCCc4ccccn4)nccc3[nH]2)cc1` [Compound 332, 2-phenyl-N-[2-(2-pyridyl)ethyl]-1H-imidazo[4,5-c]pyridin-4-amine], 30 to 50%. The same measure, in the same setting: the result for `COc1cc(-c2cc3c(cn2)nc(NCc2ccccc2F)n3C)ccc1O` [Compound 656, 4-[2-[(2-fluorophenyl)methylamino]-1-methyl-imidazo[4,5-c]pyridin-6-yl]-2-methoxy-phenol] reads 30 to 50%; that for `CC(=O)Nc1ccc(Nc2nccc3c2cc(-c2ccc(C(=O)N(C)C)cc2)n3C)cc1` [Compound 211, 4-[4-(4-acetamidoanilino)-1-methyl-pyrrolo[3,2-c]pyridin-2-yl]-N,N-dimethyl-benzamide], 30 to 50%.

Staying with this test, now noted: insulin HTRF, supernatant of beta-TC6 cells, incubation with test compound at 37°C for 2, 3, 4h.
On to `CNc1nc2cnc(-c3ccc(CO)cc3)cc2n1-c1ccccc1` [Compound 785, [4-[2-(methylamino)-1-phenyl-imidazo[4,5-c]pyridin-6-yl]phenyl]methanol], for which the “Ar (relative activity)” value is listed as “+ (0 % < Ar < 30 %)”.

For `CNc1nc2cnc(-c3ccc(CO)cc3)cc2n1-c1ccccc1` [Compound 510, [4-[2-(methylamino)-1-phenyl-imidazo[4,5-c]pyridin-6-yl]phenyl]methanol], the “Ar (relative activity)” value was “++ (30 % ≤ Ar < 50 %)”.
